In patent publication US7659293B2, “α-Amino-N-hydroxy-acetamide derivatives” (Novartis AG, priority 2001, dated 2010):
Structures can show the parent of a compound that is named as a salt.

Molecular target: T1, MT1-MMP (Homo sapiens, UniProt P50281)
T1 construct: initiator Met (ATG start codon from NdeI site) (N); made in house
Experiment: MT1-MMP fluorogenic substrate inhibition assay
Type: biochemical
Details: mean ± SEM of three independent experiments
Procedure: The inhibitory activities of compounds of formula I on MT1-MMP, MMP1 (collagenase 1) and MMP2 (gelatinase A) can be determined as follows:
Stock solutions of substrate (MCA-Pro-Leu-Gly-Leu-Dpa-Ala-Arg-NH2 (SEQ ID NO: 1), C. G. Knight, et al, FEBS lett., 296, 263-266, (1992)), are prepared in 100% DMSO at a concentration 1.0 mM.
Stock solutions of inhibitors are prepared in 100% DMSO. The inhibitor is diluted into the assays from a solution in 100% DMSO, and controls substitute an equal volume of DMSO so that the final DMSO concentration from inhibitor and substrate dilutions in all assays is 6.0%. Assays are performed in assay buffer (150 mM NaCl, 10 mM CaCl2, 50 mM Tris-Cl pH7.5, 0.05% Brij-35) containing 6.0% DMSO once the substrate and inhibitor are diluted into it. […] The fluorescence changes are monitored using an excitation wavelength of 320 nm and an emission wavelength of 340 nm. […] The reaction mixture is preincubated with the inhibitor for 30 min, the reaction is started by the addition of MMP enzyme and the fluorescence intensity is measured for 10 min. […]
Expression and Purification: The subcloned CD-MT1-MMP is used to transfect E. coli strain BL21[DE3] (Hanahan, D. J. Mol. Biol. 1983; 166(4):557-80) and expressed as insoluble inclusion body materials. […] Fractions of 1 ml are collected and […] aliquots are analyzed by immunoblotting. […]

IC50: 4.67 ± 0.17 nM
Compound: CN(C)c1ccc(CN(CC(=O)NO)S(=O)(=O)c2ccc(OCC3CC3)cc2)cc1 [Example 2, 2-[(4-Cyclopropylmethoxy-benzenesulfonyl)-(4-dimethylamino-benzyl-amino]-N-hydroxy-acetamide HCl salt]
